The conditions of data set [1]: Crystal; DTA.
The nature of data set [2]: Molar enthalpy of transition or fusion. The settings on record: Crystal; DSC.

Each structure is given as a SMILES string. ± gives the expanded uncertainty stated by the source.

For `O=C(O)CCCCCC(=O)O` [1,7-heptanedioic acid], the Normal melting temperature in data set [1] came out at 104.2 ± 0.53 °C. For the same compound, in data set [2], the “Molar enthalpy of transition or fusion” value is 6.88 ± 0.287 kcal/mol.
The like results for `CC(C(=O)O)C(C)C(=O)O` (stereo not drawn) [2,3-dimethyl-1,4-butanedioic acid] were, in that order, 121.33 ± 0.53 °C and 4.04 ± 0.167 kcal/mol.
The like results for `CC(CC(=O)O)CC(=O)O` [3-methylpentanedioic acid] were, in that order, 85.46 ± 0.53 °C and 7.41 ± 0.335 kcal/mol.
For `O=C(O)c1ccccc1` [benzoic acid], in that order: 122.93 ± 0.53 °C and 4.47 ± 0.172 kcal/mol.

The values above are taken from the NIST ThermoML archive (doi:10.1021/je200681k).
